pKi: −log10 of the molar value.
What follows are compounds tested against T1, α1A-adrenoceptor (Rattus norvegicus, UniProt P43140) (assay: Receptor binding assay, [3H]prazosin, rat submaxillary membranes). Conditions: not given.
T1 construct: from tissue; host or cells: rat submaxillary gland membranes
T1 sequence (P43140 1-466): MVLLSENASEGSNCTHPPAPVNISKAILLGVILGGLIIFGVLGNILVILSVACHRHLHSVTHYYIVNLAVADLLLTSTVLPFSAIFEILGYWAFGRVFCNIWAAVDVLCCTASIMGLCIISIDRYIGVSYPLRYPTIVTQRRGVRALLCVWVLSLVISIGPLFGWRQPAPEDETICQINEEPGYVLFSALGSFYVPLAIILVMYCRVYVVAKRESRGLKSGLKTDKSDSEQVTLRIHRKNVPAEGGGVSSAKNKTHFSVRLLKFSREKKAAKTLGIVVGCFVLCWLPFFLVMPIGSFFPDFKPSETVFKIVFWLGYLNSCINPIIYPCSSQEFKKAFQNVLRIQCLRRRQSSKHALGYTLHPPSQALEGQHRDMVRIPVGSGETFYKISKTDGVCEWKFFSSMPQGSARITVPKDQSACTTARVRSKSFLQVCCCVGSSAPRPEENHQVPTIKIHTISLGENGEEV
Protocol: (§1) Receptor binding assays, (RBA's) were performed for native α1-adrenoceptors. Rat submaxillary and rat liver membrane preparations were used to assess the affinity for α1A and α1B subtypes, respectively. Aliquots of membrane protein ([…]) were incubated in a final volume of […] assay buffer (50 mM Tris, 0.5 mM EDTA at pH 7.4) with 0.5 nM [^3H] prazosin for 60 mins at 28 ° C. Reaction was stopped by rapid filtration on Millipore filters. Filters were dried and bound radioactivity counted. Non-specific binding was determined in the presence of 0.3 mM prazosin.

Compound | pKi
O=C1CCC(=O)N1CCCN1CCN(c2ccccc2)CC1 [Compound 8, 1-[4-(Phenylpiperazin)-1-yl]-3-(2,5-dioxopyrrolidin-1-yl)propane] | 7.24
COc1ccc(N2CCN(CCCN3C(=O)CCCC3=O)CC2)cc1 [Compound 24, 1-[4-(4-Methoxyphenyl)piperazin-1-yl]-3-(2,6-dioxopiperidin-1-yl)propane] | > 5.60

Same assay, conditions: rat submaxillary membranes, 0.5 nM [3H]prazosin; read-out: RBA (Ki nM) α1A

Compound | Ki [nM]
O=C1CCC(=O)N1CCCN1CCN(c2ccc(F)cc2)CC1 [Compound 1, 1-[4-(4-Fluorophenyl)piperazin-1-yl]-3-(2,5-dioxopyrrolidin-1-yl)propane] | > 2500
O=C1CCC(=O)N1CCCN1CCN(c2cccc(C(F)(F)F)c2)CC1 [Compound 3, 1-[4-(3-Trifluoromethylphenyl)piperazin-1-yl]-3-(2,5-dioxopyrrolidin-1-yl)propane] | 1500
O=C1CCC(=O)N1CCCN1CCN(c2ccccn2)CC1 [Compound 4, 1-[4-(2-Pyridyl)piperazin-1-yl]-3-(2,5-dioxopyrrolidin-1-yl)propane] | 1660
O=C1CCC(=O)N1CCCN1CCN(c2cccc(Cl)c2)CC1 [Compound 5, 1-[4-(3-Chlorophenyl)piperazin-1-yl]-3-(2,5-dioxopyrrolidin-1-yl)propane] | 106
O=C1CCC(=O)N1CCCN1CCN(c2ncccn2)CC1 [Compound 6, 1-[4-(2-Pyrimidyl)piperazin-1-yl]-3-(2,5-dioxopyrrolidin-1-yl)propane] | 1140
Cc1ccc(N2CCN(CCCN3C(=O)CCC3=O)CC2)cc1C [Compound 7, 1-[4-(3,4-Dimethylphenyl)piperazin-1-yl]-3-(2,5-dioxopyrrolidin-1-yl)propane] | 450
COc1ccccc1N1CCN(CCN2C(=O)CCC2=O)CC1 [Compound 10, 1-[4-(2-Methoxyphenyl)piperazin-1-yl]-2-(2,5-dioxopyrrolidin-1-yl)ethane] | 1600
COc1cccc(N2CCN(CCCN3C(=O)CCC3=O)CC2)c1 [Compound 11, 1-[4-(3-Methoxyphenyl)piperazin-1-yl]-3-(2,5-dioxopyrrolidin-1-yl)propane] | > 2500

These compounds were tested against T2, α1B-adrenoceptor (Rattus norvegicus, UniProt P15823) (assay: Receptor binding assay, [3H]prazosin, rat liver membranes). Conditions: not given.
T2 construct: from tissue; host or cells: rat liver membranes
T2 sequence (P15823 1-515): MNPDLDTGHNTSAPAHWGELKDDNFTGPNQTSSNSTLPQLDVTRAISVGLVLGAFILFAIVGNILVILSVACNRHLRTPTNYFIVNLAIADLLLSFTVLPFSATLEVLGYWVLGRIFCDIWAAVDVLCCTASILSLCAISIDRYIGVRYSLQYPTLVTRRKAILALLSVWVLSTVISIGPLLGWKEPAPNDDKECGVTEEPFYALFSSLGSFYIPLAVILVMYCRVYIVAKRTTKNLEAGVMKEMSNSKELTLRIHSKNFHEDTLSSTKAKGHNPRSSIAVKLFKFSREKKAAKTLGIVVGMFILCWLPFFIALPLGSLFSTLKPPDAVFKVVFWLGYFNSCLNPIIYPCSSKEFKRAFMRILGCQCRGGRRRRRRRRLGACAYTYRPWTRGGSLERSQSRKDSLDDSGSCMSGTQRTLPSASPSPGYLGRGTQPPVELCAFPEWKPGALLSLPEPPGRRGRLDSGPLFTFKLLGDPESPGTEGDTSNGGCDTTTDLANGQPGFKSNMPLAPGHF
Protocol: as §1

Compound | pKi
COc1ccc(N2CCN(CCCN3C(=O)CCCC3=O)CC2)cc1 [Compound 24, 1-[4-(4-Methoxyphenyl)piperazin-1-yl]-3-(2,6-dioxopiperidin-1-yl)propane] | < 5.60

Same assay, conditions: rat liver membranes, 0.5 nM [3H]prazosin; read-out: RBA (Ki nM) α1B

Compound | Ki [nM]
O=C1CCC(=O)N1CCCN1CCN(c2ccc(F)cc2)CC1 [Compound 1, 1-[4-(4-Fluorophenyl)piperazin-1-yl]-3-(2,5-dioxopyrrolidin-1-yl)propane] | 1000
O=C1CCC(=O)N1CCCN1CCN(c2cccc(C(F)(F)F)c2)CC1 [Compound 3, 1-[4-(3-Trifluoromethylphenyl)piperazin-1-yl]-3-(2,5-dioxopyrrolidin-1-yl)propane] | 1000
O=C1CCC(=O)N1CCCN1CCN(c2ccccn2)CC1 [Compound 4, 1-[4-(2-Pyridyl)piperazin-1-yl]-3-(2,5-dioxopyrrolidin-1-yl)propane] | 2100
O=C1CCC(=O)N1CCCN1CCN(c2cccc(Cl)c2)CC1 [Compound 5, 1-[4-(3-Chlorophenyl)piperazin-1-yl]-3-(2,5-dioxopyrrolidin-1-yl)propane] | 175
O=C1CCC(=O)N1CCCN1CCN(c2ncccn2)CC1 [Compound 6, 1-[4-(2-Pyrimidyl)piperazin-1-yl]-3-(2,5-dioxopyrrolidin-1-yl)propane] | > 2500
Cc1ccc(N2CCN(CCCN3C(=O)CCC3=O)CC2)cc1C [Compound 7, 1-[4-(3,4-Dimethylphenyl)piperazin-1-yl]-3-(2,5-dioxopyrrolidin-1-yl)propane] | 282
O=C1CCC(=O)N1CCCN1CCN(c2ccccc2)CC1 [Compound 8, 1-[4-(Phenylpiperazin)-1-yl]-3-(2,5-dioxopyrrolidin-1-yl)propane] | 590
COc1ccccc1N1CCN(CCN2C(=O)CCC2=O)CC1 [Compound 10, 1-[4-(2-Methoxyphenyl)piperazin-1-yl]-2-(2,5-dioxopyrrolidin-1-yl)ethane] | 2350
COc1cccc(N2CCN(CCCN3C(=O)CCC3=O)CC2)c1 [Compound 11, 1-[4-(3-Methoxyphenyl)piperazin-1-yl]-3-(2,5-dioxopyrrolidin-1-yl)propane] | > 2500

What follows are compounds tested against T3, α1A-adrenoceptor (prostate) (Rattus norvegicus, UniProt P43140) (assay: In vitro functional assay, phenylephrine-induced contraction of isolated prostate). Conditions: not given.
T3 construct: Aorta, prostate and spleen tissues were isolated from urethane anaesthetized (1.5 gm/kg) male wistar rats; from tissue; host or cells: isolated prostate of male Wistar rats
T3 sequence (P43140 1-466): T1 sequence (P43140 1-466)
Type: cell-based
From the text: (§2) In order to study selectivity of action of the present compounds towards different α-adrenoceptor subtypes, the ability of these compounds to antagonize α1-adrenoceptor agonist induced contractile response of aorta (α1D), prostate (α1A) and spleen (α1B) was studied. Aorta, prostate and spleen tissues were isolated from urethane anaesthetized (1.5 gm/kg) male wistar rats. Isolated tissues were mounted in organ bath containing Krebs Henseleit buffer of the following composition (mM): NaCl 118; KCl 4.7; CaCl2 2.5; MgSO4·H2O 1.2; NaHCO3 25; KH2PO4 1.2; glucose 11.5. Buffer was maintained at 37° C. and aerated with a mixture of 95% O2 and 5% CO2. A resting tension of 2 g (aorta) or 1 g (spleen and prostate) was applied to tissues. Contractile response was monitored using a force displacement transducer and recorded on chart recorders. Tissues were allowed to equilibrate for 2 hours. At the end of equilibration period, concentration response curves to norepinephrine (aorta) and phenylephrine (spleen and prostate) were obtained in the absence and presence of the tested compound (at concentrations of 0.1, 1 and 10 μM). Antagonist affinity was calculated and expressed as PKB values in Table 1.

Compound | Kb [nM]
O=C1CCC(=O)N1CCCN1CCN(c2ccc(F)cc2)CC1 [Compound 1, 1-[4-(4-Fluorophenyl)piperazin-1-yl]-3-(2,5-dioxopyrrolidin-1-yl)propane] | 79.4
O=C1CCC(=O)N1CCCN1CCN(c2ccccc2)CC1 [Compound 8, 1-[4-(Phenylpiperazin)-1-yl]-3-(2,5-dioxopyrrolidin-1-yl)propane] | 31.6

Same assay, conditions: rat prostate, phenylephrine; read-out: In Vitro Functional Assay (pKB) α1A (converted)

Compound | Kb [nM]
O=C1CCC(=O)N1CCCN1CCN(c2cccc(Cl)c2)CC1 [Compound 5, 1-[4-(3-Chlorophenyl)piperazin-1-yl]-3-(2,5-dioxopyrrolidin-1-yl)propane] | 5010
O=C1CCC(=O)N1CCCN1CCN(c2ncccn2)CC1 [Compound 6, 1-[4-(2-Pyrimidyl)piperazin-1-yl]-3-(2,5-dioxopyrrolidin-1-yl)propane] | 20000
Cc1ccc(N2CCN(CCCN3C(=O)CCC3=O)CC2)cc1C [Compound 7, 1-[4-(3,4-Dimethylphenyl)piperazin-1-yl]-3-(2,5-dioxopyrrolidin-1-yl)propane] | 398
COc1ccccc1N1CCN(CCN2C(=O)CCC2=O)CC1 [Compound 10, 1-[4-(2-Methoxyphenyl)piperazin-1-yl]-2-(2,5-dioxopyrrolidin-1-yl)ethane] | 126

Each compound was assayed against T4, α1B-adrenoceptor (spleen) (Rattus norvegicus, UniProt P15823) (assay: In vitro functional assay, phenylephrine-induced contraction of isolated spleen). Conditions: not given.
T4 construct: Aorta, prostate and spleen tissues were isolated from urethane anaesthetized (1.5 gm/kg) male wistar rats; from tissue; host or cells: isolated spleen of male Wistar rats
T4 sequence (P15823 1-515): T2 sequence (P15823 1-515)
Type: cell-based
From the text: as §2

Compound | Kb [nM]
O=C1CCC(=O)N1CCCN1CCN(c2ccc(F)cc2)CC1 [Compound 1, 1-[4-(4-Fluorophenyl)piperazin-1-yl]-3-(2,5-dioxopyrrolidin-1-yl)propane] | 100
O=C1CCC(=O)N1CCCN1CCN(c2cccc(C(F)(F)F)c2)CC1 [Compound 3, 1-[4-(3-Trifluoromethylphenyl)piperazin-1-yl]-3-(2,5-dioxopyrrolidin-1-yl)propane] | 63.1

Same assay, conditions: rat spleen, phenylephrine; read-out: In Vitro Functional Assay (pKB) α1B (converted)

Compound | Kb [nM]
O=C1CCC(=O)N1CCCN1CCN(c2cccc(Cl)c2)CC1 [Compound 5, 1-[4-(3-Chlorophenyl)piperazin-1-yl]-3-(2,5-dioxopyrrolidin-1-yl)propane] | 5010
O=C1CCC(=O)N1CCCN1CCN(c2ncccn2)CC1 [Compound 6, 1-[4-(2-Pyrimidyl)piperazin-1-yl]-3-(2,5-dioxopyrrolidin-1-yl)propane] | 5010
Cc1ccc(N2CCN(CCCN3C(=O)CCC3=O)CC2)cc1C [Compound 7, 1-[4-(3,4-Dimethylphenyl)piperazin-1-yl]-3-(2,5-dioxopyrrolidin-1-yl)propane] | 200
COc1ccccc1N1CCN(CCN2C(=O)CCC2=O)CC1 [Compound 10, 1-[4-(2-Methoxyphenyl)piperazin-1-yl]-2-(2,5-dioxopyrrolidin-1-yl)ethane] | 200

These compounds were tested against T5, α1D-adrenoceptor (aorta) (Rattus norvegicus, UniProt P23944) (assay: In vitro functional assay, norepinephrine-induced contraction of isolated aorta). Conditions: not given.
T5 construct: Aorta, prostate and spleen tissues were isolated from urethane anaesthetized (1.5 gm/kg) male wistar rats; from tissue; host or cells: isolated aorta of male Wistar rats
T5 sequence (P23944 1-561): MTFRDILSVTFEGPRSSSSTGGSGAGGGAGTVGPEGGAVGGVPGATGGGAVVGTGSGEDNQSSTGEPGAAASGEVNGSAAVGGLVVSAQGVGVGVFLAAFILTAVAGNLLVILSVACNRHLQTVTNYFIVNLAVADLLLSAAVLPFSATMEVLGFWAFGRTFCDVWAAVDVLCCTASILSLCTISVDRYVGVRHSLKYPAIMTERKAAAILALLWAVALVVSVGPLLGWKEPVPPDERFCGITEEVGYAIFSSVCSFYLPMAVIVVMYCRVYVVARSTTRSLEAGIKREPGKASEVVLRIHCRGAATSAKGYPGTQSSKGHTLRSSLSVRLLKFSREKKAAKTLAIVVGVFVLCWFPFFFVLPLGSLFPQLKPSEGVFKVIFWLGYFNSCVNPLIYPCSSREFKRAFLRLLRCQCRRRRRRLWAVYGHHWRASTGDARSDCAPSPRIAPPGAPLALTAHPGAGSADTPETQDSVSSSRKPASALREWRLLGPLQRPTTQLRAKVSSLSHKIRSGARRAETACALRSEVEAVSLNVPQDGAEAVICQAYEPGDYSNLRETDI
Type: cell-based
From the text: as §2

Compound | Kb [nM]
O=C1CCC(=O)N1CCCN1CCN(c2cccc(Cl)c2)CC1 [Compound 5, 1-[4-(3-Chlorophenyl)piperazin-1-yl]-3-(2,5-dioxopyrrolidin-1-yl)propane] | 100

Same assay, conditions: rat aorta, norepinephrine; read-out: In Vitro Functional Assay (pKB) α1D (converted)

Compound | Kb [nM]
O=C1CCC(=O)N1CCCN1CCN(c2ccc(F)cc2)CC1 [Compound 1, 1-[4-(4-Fluorophenyl)piperazin-1-yl]-3-(2,5-dioxopyrrolidin-1-yl)propane] | 158
O=C1CCC(=O)N1CCCN1CCN(c2cccc(C(F)(F)F)c2)CC1 [Compound 3, 1-[4-(3-Trifluoromethylphenyl)piperazin-1-yl]-3-(2,5-dioxopyrrolidin-1-yl)propane] | 10000
O=C1CCC(=O)N1CCCN1CCN(c2ccccn2)CC1 [Compound 4, 1-[4-(2-Pyridyl)piperazin-1-yl]-3-(2,5-dioxopyrrolidin-1-yl)propane] | 2510
O=C1CCC(=O)N1CCCN1CCN(c2ncccn2)CC1 [Compound 6, 1-[4-(2-Pyrimidyl)piperazin-1-yl]-3-(2,5-dioxopyrrolidin-1-yl)propane] | 316
Cc1ccc(N2CCN(CCCN3C(=O)CCC3=O)CC2)cc1C [Compound 7, 1-[4-(3,4-Dimethylphenyl)piperazin-1-yl]-3-(2,5-dioxopyrrolidin-1-yl)propane] | 316
O=C1CCC(=O)N1CCCN1CCN(c2ccccc2)CC1 [Compound 8, 1-[4-(Phenylpiperazin)-1-yl]-3-(2,5-dioxopyrrolidin-1-yl)propane] | 251
COc1ccccc1N1CCN(CCN2C(=O)CCC2=O)CC1 [Compound 10, 1-[4-(2-Methoxyphenyl)piperazin-1-yl]-2-(2,5-dioxopyrrolidin-1-yl)ethane] | 126

Source: US6410735B1, “1-(4-arylpiperazin-1-y1)-ω-[N-(α,ω-dicarboximido)]-alkanes useful as uro-selective α1-adrenoceptor blockers” (Ranbaxy Laboratories Limited, priority 1997, dated 2002)
